Key:
[1] = target: T1, RORγ receptor (B-RORγ LBD / Bioin-SRC1) (Homo sapiens, UniProt P51449); test: Determination of agonistic activities on RORγ receptors in vitro (dual FRET); format: biochemical; conditions: average of at least two independent experiments
T1 construct: 40 nM B-RORγ LBD solution
T1 sequence (P51449 269-508 limits assumed): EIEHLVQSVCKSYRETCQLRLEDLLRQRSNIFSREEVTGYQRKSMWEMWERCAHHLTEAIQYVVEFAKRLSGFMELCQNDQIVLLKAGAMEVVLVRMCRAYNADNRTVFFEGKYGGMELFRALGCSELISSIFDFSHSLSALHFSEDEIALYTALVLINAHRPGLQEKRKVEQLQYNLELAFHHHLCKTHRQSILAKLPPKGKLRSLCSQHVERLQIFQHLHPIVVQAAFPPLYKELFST
T1 sequence (Q15788 676-700 partner limits assumed): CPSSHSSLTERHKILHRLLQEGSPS
Description: Determination of Agonistic Activities of Compounds on RORγ Receptors In Vitro The agonistic activities of compounds described herein on RORγ receptor were determined by dual fluorescence resonance energy transfer (dual FRET) experiments. The agonistic activity was expressed by half maximum effect concentration (EC50).
1) Preparation of RORγ Assay Buffer
100 mL of buffer solution was well mixed with […] DTT for use.
2) Preparation of Solutions of Compounds
3) Preparation of protein mixtures a) 40 nM B-RORγ LBD solution was mixed well with 20 nM SA-APC solution and incubated for 15 minutes at room temperature. Then the resulting mixture was further mixed well with 400 nM Biotin and incubated for another 10 minutes at room temperature. […]
b) 40 nM Bioin-SRC1 solution was mixed well with 10 nM SA-eu solution and was incubated for 15 minutes at room temperature. Then the resulting mixture was further mixed well with 200 nM Biotin and was incubated for another 10 minutes at room temperature. […]
d) A mixture (25 μL) of B-RORγ LBD/SA-APC and Bioin-SRC1/SA-eu together with a test compound was added to one of the wells of a 384-well plate, and then the plate was centrifuged for one minute at 1000 rpm, and incubated at room temperature for one hour. The data were read on an Envision microplate detector and EC50 values were calculated.

[2] = test system: Mouse lymphoma EL4 cells transfected with RORγt plasmid; test: Determination of the activation rate on mouse lymphoma EL4 (IL-17 generation); format: cell-based; conditions: compound at 2 μM, 24 hours, PMA/ionomycin stimulation 4 hours, flow cytometry, read-out: +act % (activation of IL-17 generated by EL4 cells)
Description: Determination of the Activation Rate on Mouse Lymphoma EL4
Mouse lymphoma EL4 cells transfected with RORγt plasmid were cultured at 37° C. under an atmosphere with 5% CO2, with a test compound added simultaneously. After 24 hours, the generation efficiency of IL-17A was analyzed. Before collection of cells, PMA at 50 ng/mL and ionomycin at 500 ng/mL were added for stimulation for 4 hours. The proportion of IL-17 was detected by intracellular staining and flow cytometry. […] The activation rate of IL-17 generated by EL4 cells for the compound was measured at a concentration of 2 μM.

SMILES	EC50 [1] [µM]	activation at 2 µM [2] [%]
CC(C)Cc1ccc(-c2c(Cl)cc(NC(=O)CC3CCOCC3)cc2Cl)cc1C#N [Example 6, N-(2,6-Dichloro-3′-cyano-4′-isobutyl-[1,1′-biphenyl]-4-yl)-2-(tetrahydro-2H-pyran-4-yl) acetamide]	0.01 to 0.05	20 to 50
CC(C)Cc1ccc(-c2c(Cl)cc(NC(=O)Cc3ccc(C(=O)O)cc3)cc2Cl)cc1C#N [Example 24, 4-(2-((2,6-Dichloro-3′-cyano-4′-isobutyl-[1,1′-biphenyl]-4-yl)amino)-2-oxoethyl)benzoic acid]	< 0.01	< 20
CCS(=O)(=O)c1ccc(CC(=O)Nc2cc(Cl)c(-c3ccc(CN(C)C)c(C#N)c3)c(Cl)c2)cc1 [Example 35, N-(2,6-Dichloro-3′-cyano-4′-((dimethylamino)methyl)-[1,1′-biphenyl]-4-yl)-2-(4-(ethylsulfonyl)phenyl)acetamide]		> 50
CCS(=O)(=O)c1ccc(CC(=O)Nc2cc(Cl)c(-c3ccc(C=C(C)C)c(C#N)c3)c(Cl)c2)cc1 [Example 40, N-(2,6-Dichloro-3′-cyano-4′-(2-methylprop-1-en-1-yl)-[1,1′-biphenyl]-4-yl)-2-(4-(ethylsulfonyl)phenyl)acetamide]		> 50
CCS(=O)(=O)c1ccc(CNC(=O)c2cc(Cl)c(-c3ccc(CC(C)C)c(C#N)c3)c(Cl)c2)cc1 [Example 47]		< 20
CCS(=O)(=O)c1ccc(CNC(=O)Nc2cc(Cl)c(-c3ccc(CC(C)C)c(C#N)c3)c(Cl)c2)cc1 [Example 53, 1-(2,6-Dichloro-3′-cyano-4′-isobutyl-[1,1′-biphenyl]-4-yl)-3-(4-(ethylsulfonyl)benzyl)urea]		20 to 50
CC(C)Cc1ccc(-c2c(Cl)cc(NCCc3ccc(S(C)(=O)=O)cc3)cc2Cl)cc1C#N [Example 61, 2′,6′-Dichloro-4-isobutyl-4′-((4-(methylsulfonyl)phenethyl)amino)-[1,1′-biphenyl]-3-carbonitrile]	0.01 to 0.05	

Continued, in another order:

EC50 [1] [µM]	SMILES	activation at 2 µM [2] [%]
0.01 to 0.05	CC(C)Cc1ccc(-c2c(Cl)cc(NC(=O)C3CCCCC3)cc2Cl)cc1C#N [Example 2, N-(2,6-Dichloro-3′-cyano-4′-isobutyl-[1,1′-biphenyl]-4-yl)cyclohexanecarboxamide]	20 to 50
0.01 to 0.05	CC(C)Cc1ccc(-c2c(Cl)cc(NC(=O)CC3CCCCC3)cc2Cl)cc1C#N [Example 5, (2-Cyclohexyl-N-(2,6-dichloro-3′-cyano-4′-isobutyl-[1,1′-biphenyl]-4-yl)acetamide)]	< 20
0.01 to 0.05	CC(C)Cc1ccc(-c2c(Cl)cc(NC(=O)Cc3ccn(C)n3)cc2Cl)cc1C#N [Example 9A, N-(2,6-Dichloro-3′-cyano-4′-isobutyl-[1,1′-biphenyl]-4-yl)-2-(1-methyl-1H-pyrazol-3-yl)acetamide]	< 20
0.01 to 0.05	CC(C)Cc1ccc(-c2c(Cl)cc(NC(=O)Cc3ccccc3C#N)cc2Cl)cc1C#N [Example 11, 2-(2-Cyanophenyl)-N-(2,6-dichloro-3′-cyano-4′-isobutyl-[1,1′-biphenyl]-4-yl)acetamide]	< 20
0.01 to 0.05	CC(C)Cc1ccc(-c2c(Cl)cc(NC(=O)Cc3ccccn3)cc2Cl)cc1C#N [Example 13, N-(2,6-Dichloro-3′-cyano-4′-isobutyl-[1,1′-biphenyl]-4-yl)-2-(pyridin-2-yl)acetamide]	< 20
0.01 to 0.05	CCS(=O)(=O)c1ccc(CC(=O)Nc2cc(Cl)c(-c3ccc(CC(C)C)cc3)c(Cl)c2)cc1 [Example 26, N-(2,6-Dichloro-4′-isobutyl-[1,1′-biphenyl]-4-yl)-2-(4-(ethylsulfonyl)phenyl)acetamide]	< 20
< 0.01	CN(C)Cc1ccc(-c2c(Cl)cc(NCCc3ccc(S(C)(=O)=O)cc3)cc2Cl)cc1C#N [Example 63, 2′,6′-Dichloro-4-((dimethylamino)methyl)-4′-((4-(methylsulfonyl)phenethyl)amino)-[1,1′-biphenyl]-3-carbonitrile]	

Reference: patent US10844017B2, “Biaryl compound, preparation method and use thereof” (FUDAN UNIVERSITY, priority 2017, dated 2020)
